In patent publication US20230364243A1, “CANCER-SELECTIVE TARGET DEGRADATION BY TARGETING GROUP CAGED PROTACS” (Beth Israel Deaconess Medical Center, Inc., priority 2021, published 2023):

Columns and labels:
Type in all cases: cell-based
IKZF3 [1] = target: T1, IKZF3 (Homo sapiens, UniProt Q9UKT9); assay: Western blotting of IKZF3 in MM.1S cells; conditions: FOLR1-positive MM.1S cells, 12 hours
T1 construct: endogenous in cells; host or cells: MM.1S (also MM.1S-CRBN+/+ and CRBN-/-)
Method: (§1) For folic acid competitive degradation assay, cells were pretreated with folic acid (F8758, Sigma-Aldrich, 2.5 mM) for 2 hours, followed by the treatment of indicated PROTACs for indicated time. […] For proteasome or E3 ligase inhibition assay, cells were treated with MG132 (BML-P11020, ENZO Life Sciences, 10 μM) or MLN4924 (S7109, SelleckChem, 1 μM) another 12 hours.
(§2) Cells were lysed in EBC buffer (50 mM Tris-HCl pH 7.5, 120 mM NaCl and 0.5% NP-40) supplemented with protease inhibitors (Pierce) and phosphatase inhibitors (phosphatase inhibitor cocktailset I and II, Calbiochem). The protein concentrations of the lysates were measured using the Bio-Rad protein assay reagent on a Beckman Coulter DU-800 spectrophotometer. The lysates (40 μg protein) werethen resolved by 10% SDS-olyacrylamide gel electrophoresis (PAGE) at 130 V for 80 min and immunoblotted with indicated antibodies at 4° C. overnight, washed four times with Tris-buffered saline with 0.1% Tween-20 (TBST) buffer, incubated with secondary antibody for 1 hour at room temperature, and then washed 4 times with TBST.

IKZF1 = target: T2, IKZF1 (Homo sapiens, UniProt Q13422+Q96SW2); assay: Western blotting of IKZF1 in SU-DHL-1 cells; conditions: FOLR1-positive SU-DHL-1 cells, 12 hours
T2 construct: endogenous in cells; host or cells: SU-DHL-1
T2 sequence (Q13422 whole entry): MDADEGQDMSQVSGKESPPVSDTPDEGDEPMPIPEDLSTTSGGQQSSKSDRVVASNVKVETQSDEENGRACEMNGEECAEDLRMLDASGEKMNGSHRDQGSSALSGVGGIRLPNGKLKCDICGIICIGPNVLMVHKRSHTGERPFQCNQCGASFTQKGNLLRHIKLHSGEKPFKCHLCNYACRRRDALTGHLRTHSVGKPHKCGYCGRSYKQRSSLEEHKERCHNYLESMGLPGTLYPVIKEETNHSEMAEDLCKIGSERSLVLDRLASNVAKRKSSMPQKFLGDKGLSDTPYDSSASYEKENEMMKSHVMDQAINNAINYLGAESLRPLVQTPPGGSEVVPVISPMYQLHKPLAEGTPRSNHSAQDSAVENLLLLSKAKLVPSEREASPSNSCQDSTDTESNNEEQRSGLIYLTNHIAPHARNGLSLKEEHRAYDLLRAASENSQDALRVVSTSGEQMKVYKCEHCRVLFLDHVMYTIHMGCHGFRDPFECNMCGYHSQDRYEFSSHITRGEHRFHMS
T2 sequence (Q96SW2 whole entry): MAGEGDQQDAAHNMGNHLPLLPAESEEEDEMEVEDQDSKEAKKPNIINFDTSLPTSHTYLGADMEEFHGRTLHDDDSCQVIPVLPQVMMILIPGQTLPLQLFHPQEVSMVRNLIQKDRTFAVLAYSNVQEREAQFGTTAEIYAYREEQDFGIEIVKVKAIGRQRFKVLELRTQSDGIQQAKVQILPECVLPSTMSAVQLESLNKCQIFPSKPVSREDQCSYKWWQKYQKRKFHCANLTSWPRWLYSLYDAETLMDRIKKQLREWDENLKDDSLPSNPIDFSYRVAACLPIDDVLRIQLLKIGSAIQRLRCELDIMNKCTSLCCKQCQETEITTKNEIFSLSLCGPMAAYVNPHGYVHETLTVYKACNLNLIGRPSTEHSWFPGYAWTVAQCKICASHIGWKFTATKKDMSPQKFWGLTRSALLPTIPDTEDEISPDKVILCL
T2 sequence (Q16531 whole entry partner): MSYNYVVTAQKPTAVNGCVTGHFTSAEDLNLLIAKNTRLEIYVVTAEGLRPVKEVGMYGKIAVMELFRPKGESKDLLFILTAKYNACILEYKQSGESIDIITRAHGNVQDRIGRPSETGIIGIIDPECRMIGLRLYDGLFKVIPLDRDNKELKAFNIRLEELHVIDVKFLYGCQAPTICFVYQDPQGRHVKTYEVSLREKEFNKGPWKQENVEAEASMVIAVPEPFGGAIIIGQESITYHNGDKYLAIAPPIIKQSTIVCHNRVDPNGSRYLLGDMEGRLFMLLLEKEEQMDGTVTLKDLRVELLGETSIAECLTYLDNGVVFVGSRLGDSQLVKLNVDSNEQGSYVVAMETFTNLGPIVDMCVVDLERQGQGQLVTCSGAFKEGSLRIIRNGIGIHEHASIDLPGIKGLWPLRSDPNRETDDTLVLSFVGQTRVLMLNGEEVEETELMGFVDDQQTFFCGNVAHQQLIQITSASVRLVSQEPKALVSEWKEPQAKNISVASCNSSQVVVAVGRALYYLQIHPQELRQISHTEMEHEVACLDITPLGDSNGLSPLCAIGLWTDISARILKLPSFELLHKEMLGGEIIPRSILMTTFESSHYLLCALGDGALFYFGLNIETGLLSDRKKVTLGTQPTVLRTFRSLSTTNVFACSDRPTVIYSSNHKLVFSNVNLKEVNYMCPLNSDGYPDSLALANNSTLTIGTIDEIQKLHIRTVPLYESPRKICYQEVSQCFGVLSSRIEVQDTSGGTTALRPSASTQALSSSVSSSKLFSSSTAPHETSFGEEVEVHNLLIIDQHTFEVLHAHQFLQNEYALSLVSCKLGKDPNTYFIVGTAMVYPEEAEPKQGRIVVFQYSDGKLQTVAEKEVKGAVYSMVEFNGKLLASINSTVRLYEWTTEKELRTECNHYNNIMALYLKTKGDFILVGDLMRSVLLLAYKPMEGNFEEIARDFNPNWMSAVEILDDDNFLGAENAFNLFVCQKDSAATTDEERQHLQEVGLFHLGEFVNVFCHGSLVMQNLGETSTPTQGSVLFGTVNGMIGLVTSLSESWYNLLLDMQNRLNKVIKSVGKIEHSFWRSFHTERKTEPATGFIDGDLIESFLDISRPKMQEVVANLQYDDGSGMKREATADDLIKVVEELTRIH
Method: as §2

MM.1S cells = assay: Cell viability / proliferation of MM.1S cells (CCK-8); conditions: Homo sapiens, MM1.S, 72 hours
Method: For folic acid competitive degradation assay, cells were pretreated with folic acid (F8758, Sigma-Aldrich, 2.5 mM) for 2 hours, followed by the treatment of indicated PROTACs for indicated time. For endocytosis inhibition, cells were pretreated with Pitostop 2 (SML1169, Sigma-Aldrich, 1-30 μM) or MCD (21633, Cayman, 0.03-1 mM) for 12 hours, followed by co-treatment with indicated PROTACs for another 12 hours. For proteasome or E3 ligase inhibition assay, cells were treated with MG132 (BML-P11020, ENZO Life Sciences, 10 μM) or MLN4924 (S7109, SelleckChem, 1 μM) another 12 hours. For GSH-stimulating assay, cells were treated with S-Acetyl-GSH (29624, Cayman, 1 mM) with indicated PROTACs for 12 or 72 hours.
Cell in 96-well plates were treated with drugs as indicated, and then incubated with 10 μl/well of CCK-8 (cell counting Kit-8) solution at for 1-2 hours, followed by the measurement of optical density at 450 nm.

IKZF3 [2] = target: T3, IKZF3 (Homo sapiens, UniProt Q96SW2+Q9UKT9); assay: Western blotting of IKZF3 in FOLR1-negative THP-1 cells; parameters: endogenous in cells; conditions: 12 hours
T3 sequence (Q9UKT9 whole entry): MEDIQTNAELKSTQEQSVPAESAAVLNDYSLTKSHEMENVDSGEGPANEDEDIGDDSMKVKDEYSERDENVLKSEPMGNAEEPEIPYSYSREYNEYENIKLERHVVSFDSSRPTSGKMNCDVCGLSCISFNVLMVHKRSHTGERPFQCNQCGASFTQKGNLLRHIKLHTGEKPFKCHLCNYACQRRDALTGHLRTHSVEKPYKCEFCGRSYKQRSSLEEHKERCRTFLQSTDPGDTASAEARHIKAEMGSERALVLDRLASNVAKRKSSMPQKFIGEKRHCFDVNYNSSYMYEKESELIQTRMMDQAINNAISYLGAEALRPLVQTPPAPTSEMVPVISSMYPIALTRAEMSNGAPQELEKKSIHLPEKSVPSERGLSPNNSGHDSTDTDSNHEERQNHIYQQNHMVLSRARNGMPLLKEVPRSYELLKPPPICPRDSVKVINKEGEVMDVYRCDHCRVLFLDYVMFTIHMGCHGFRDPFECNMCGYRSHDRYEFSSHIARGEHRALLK
T3 sequence (Q96SW2 whole entry): as the sequence (Q96SW2 whole entry) above
T3 sequence (Q16531 whole entry partner): as the sequence (Q16531 whole entry partner) above
Method: as §2

IKZF3 [3] = target: T3, IKZF3; assay: Western blotting of IKZF3 in MM.1S cells; parameters: endogenous in cells; host or cells: MM.1S (also MM.1S-CRBN+/+ and CRBN-/-); conditions: MM.1S cells, CRBN knockout
Method: as §1, §2

T1 sequence (Q9UKT9 whole entry): as the sequence (Q9UKT9 whole entry) above
T1 sequence (Q96SW2 whole entry, further chain): as the sequence (Q96SW2 whole entry) above
T1 sequence (Q16531 whole entry partner): as the sequence (Q16531 whole entry partner) above

Compound: Nc1cccc2c1C(=O)N(C1CCC(=O)NC1=O)C2=O (centres unmarked) [pomalidomide, reference compound]
- degradation of IKZF3 (IKZF3 [1]): degrade IKZF3 or IKZF1
- degradation of IKZF1 (IKZF1): degrade IKZF3 or IKZF1
- IC50 (MM.1S cells): 0.058 µM
- degradation of IKZF3 (IKZF3 [2]): degrade IKZF3 or IKZF1
- effect on degrading IKZF3 after depletion of endogenous CRBN E3 ubiquitin ligase (IKZF3 [3]): completely abolished the effect
